From patent publication US20170216295A1, “CCR9 ANTAGONIST COMPOUNDS” (Merck Sharp & Dohme Corp., priority 2014, published 2017)

Columns and labels:
[1] = Rat liver microsome clearance; assay type: in vitro ADME; conditions: for RLM CL (rat liver microsome hepatic clearance): first value of RLM/HLM cell; for Rat Microsome In Vitro CLint: 2 μM, 1 mg/mL rat hepatic microsomes, NADPH
Experimental: Microsomal In-Vitro Clearance:
The test articles (2 μM) were incubated for one hour in 1 mg/mL rat hepatic microsomes with 2 mM NADPH at 37° C. with aliquots removed at t=0, 15, 30 and 60 minutes. Incubations were terminated at the specified times by protein precipitation, and samples were centrifuged. Resultant supernants were analyzed by LC-MS/MS for the amount of incubated compound remaining, and the half life (t1/2) and intrinsic microsomal clearance rate (CLint) of each compound was calculated.

[2] = Human liver microsome clearance; assay type: in vitro ADME; conditions: second value of RLM/HLM cell
Rat PK (i.v./p.o.) = assay type: in vivo; conditions: for Rat In vivo CL: i.v.; for increase in oral bioavailability: compound 39 vs compound 6, compound 42 vs compound 40; for % F (p.o.) / Oral AUC/D: oral; for % F (p.o.): 6: co-solvent (pH 9), 39, 40, 42: co-solvent + surfactant (pH 9); for Oral AUC/D: formulation as in Table 6
Experimental: Sprague Dawley Rats (n=3) were dosed both intravenously and orally with a solution formulation followed by plasma collection at time points providing sufficient coverage of the absorption, distribution, metabolism and excretion phases of the test article. Test article concentrations at each time point were determined by LC-MS detected bioanalytical analysis. Non-compartmental pharmacokinetic analysis of the intravenous bioanalytical data provided area under the curve, clearance, volume of distribution, and terminal half life parameters while similar analysis of plasma samples from animals dosed orally provided area under the curve, bio-available fraction and oral terminal half life pharmacokinetic parameters.
Rats (n of 3) were dosed both intravenously and orally with the various compounds. Plasma samples were collected at time points chosen to provide sufficient coverage of the absorption, distribution, metabolism and excretion phases of the test compound. LC-MS detected bioanalytical analysis was performed on the plasma samples utilizing a standard curve and quality control samples to provide enough precision and accuracy to determine the concentrations test article for plasma from each time point. Non-compartmental pharmacokinetic analysis of the intravenous bioanalytical data provided area under the curve, clearance, volume of distribution, terminal half life parameters while similar analysis of plasma samples from animals dosed orally provided area under the curve, bio-available fraction and oral terminal half life pharmacokinetic parameters (see FIG. 1).

CCR9 receptor = target: T1, CCR9 receptor (Homo sapiens, UniProt P51686); assay: Calcium mobilization (Ca FLIPR) assay, antagonist mode vs TECK; assay type: cell-based; conditions: for LipE: LipE = pIC50-clogD; for IC50: cells expressing CCR9, TECK at EC80 0.01 uM, read-out: CCR9 Ca2+ IC50
T1 sequence (P51686 1-369): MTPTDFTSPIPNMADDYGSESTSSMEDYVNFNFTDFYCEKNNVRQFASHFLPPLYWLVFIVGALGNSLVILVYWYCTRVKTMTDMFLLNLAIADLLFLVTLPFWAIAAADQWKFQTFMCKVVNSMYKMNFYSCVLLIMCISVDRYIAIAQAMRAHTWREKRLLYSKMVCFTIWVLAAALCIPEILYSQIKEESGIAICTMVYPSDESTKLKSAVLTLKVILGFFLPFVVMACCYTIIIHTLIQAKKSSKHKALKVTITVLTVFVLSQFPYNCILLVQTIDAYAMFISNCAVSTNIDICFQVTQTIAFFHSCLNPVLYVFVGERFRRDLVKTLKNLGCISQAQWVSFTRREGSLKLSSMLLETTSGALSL
Experimental: Calcium Mobilization Assay:
Cells expressing CCR9 receptor (MultiSpan, Hayward, Calif.) were seeded in 384-well plates. Ca^2+ assays were conducted after overnight culture in the plates according to the manufacturer's protocol using Screen Quest™ Fluo-8 no wash kit (AAT Bioquest, Sunnyvale, Calif.). Dye loading buffer was added to the cells and incubated for 45 minutes at 37° C. followed by 15 minutes incubation at room temperature. Compounds in the presence of 0.1% DMSO were applied to the cells during calcium flux measurement. Calcium flux was monitored for 90 seconds with compound application after 10 seconds. For antagonist mode, cells were preincubated with the compound at room temperature for 10 minutes before the application of the control agonist TECK (Preprotech, Rocky Hill, N.J.) at EC80 concentration of 0.01 uM obtained from dose-response curves of control agonist.

Molt-4 cells = assay: Chemotaxis assay of Molt-4 cells towards TECK; assay type: cell-based; conditions: Molt-4 cells in HBSS buffer with 0.1% BSA, TECK at EC80
Experimental: Molt-4 cells were harvested and re-suspended in HBSS buffer with 0.1% BSA or in 100% human serum. Cell suspensions were mixed with compound solutions for 10 min and then seeded onto the upper chamber of the ChemoTX chemotaxis plates with 5 μm pore size polycarbonate membrane from NeuroProbe (Gaithersburg, Md.). EC80 concentration of TECK was applied in the bottom chamber. After 2 hours of incubation at 37° C., the assay was terminated by removing the upper chamber. The cells migrated into the bottom chamber were quantified with CyQUANT solution from Invitrogen (Grand Island, N.Y.).

[3] = pH-solubility (high-throughput, buffers); assay type: physicochemical; conditions: for Sol. pH 4: 1000 ug compound in 1 mL pH 4 buffer; for Sol. pH 7: 1000 ug compound in 1 mL pH 7 buffer; for Sol. pH 9: 1000 ug compound in 1 mL pH 9 buffer; for Solubility pH 4: pH 4 (Table 6); for Solubility pH 7.4: pH 7.4 (Table 6); for Solubility pH 9: pH 9 (Table 6)
Experimental: Solubility of representative acidic triazoles was measured in 3 buffer systems (pH 4, 7.4 and 9) using an in-house high-throughput solubility method. A stock solution of test article was prepared in DMA (20 mg/ml) and spiked into each buffer system (20× dilution) to target 1 mg/ml concentration. The samples were vortexed briefly and equilibrated for 24 hr at RT. Samples were then filtered using 0.22u PVDF membrane filters and analyzed for drug concentration using HPLC.

[4] = Rat plasma protein binding (equilibrium dialysis); assay type: in vitro ADME; conditions: fraction unbound
Experimental: Plasma and Microsome Protein Binding:
Protein binding was measured via high throughput equilibrium dialysis with the HTDialysis device fitted with a 12,000 to 14,000 Da molecular weight cutoff membrane. Rat plasma or 1 mg/mL rat hepatic microsomes spiked with test article were dialyzed vs. phosphate buffer for 6 hours. Aliquots were removed from both sides of the membrane and diluted with equal volumes of the opposite matrix. Following protein precipitation and centrifugation, the resultant matrix matched supernatants were analyzed by LC-MS to compare the plasma or microsome dialysate test article signal to the buffer signal. Test article stability was monitored during the course of the assay.

[5] = In-vitro precipitation time in simulated gastric and intestinal fluids; assay type: physicochemical; conditions: oral dosing solution
Experimental: Dosing solutions at 1 mg/mL for rat PK studies were prepared using either a pH+co-solvent approach or pH+cosolvent+surfactant approach. The total amounts of cosolvent and surfactant used in the solution formulations ranged from 5-8% v/v and q.s. with pH 9 phosphate buffer. Solutions were assessed for their potential for in-vivo precipitation using an in-vitro dilution test (1:1, 1:4 and 1:9) in simulated gastric and intestinal fluids.

Compound | RLM CL (rat liver microsome hepatic clearance) [1] | HLM CL (human liver microsome hepatic clearance) [2] | LipE (CCR9 receptor) | IC50 (Molt-4 cells; Homo sapiens) | Sol. pH 4 [3] | Sol. pH 7 [3] | Sol. pH 9 [3] | IC50 (CCR9 receptor) | Rat Microsome In Vitro CLint [1] | Rat Plasma Protein Binding (PPB) Fu [4] | Rat In vivo CL as % Hepatic Blood Flow (Rat PK (i.v./p.o.)) | Rat In vivo CL (Rat PK (i.v./p.o.)) | also measured
Cc1nc2ncnn2c(O)c1Cc1ccc(C(C)(C)C)cc1 [Compound 11] | 51 mL/min/kg | 19 mL/min/kg | 4.4 | 480 nM | 13 ug/mL | 136 ug/mL | > 1000 ug/mL | – | – | – | – | – | Vd (in words) (Rat PK (i.v./p.o.)): moderate; half-life (in words) (Rat PK (i.v./p.o.)): short; in vivo CL (in words) (Rat PK (i.v./p.o.)): high; oral bioavailability (in words) (Rat PK (i.v./p.o.)): low
CCOc1nc2nc(CC)c(Cc3ccc(C(C)(C)C)cc3)c(O)n2n1 [Compound 19] | 16 mL/min/kg | 11 mL/min/kg | 4.2 | 150 nM | 79 ug/mL | 117 ug/mL | 914 ug/mL | 8 nM | – | – | – | – | –
CC(C)c1nc2ncnn2c(O)c1Cc1ccc(C(C)(C)C)cc1 [Compound 23] | 44 mL/min/kg | 13 mL/min/kg | 4.0 | 340 nM | 2 ug/mL | 7 ug/mL | 358 ug/mL | 52 nM | – | – | – | – | –
CCc1nc2ncnn2c(O)c1Cc1ccc(C2(C)CCOCC2)cc1 [Compound 35] | 37 mL/min/kg | 17 mL/min/kg | 5.7 | 380 nM | >1000/>1000/>1000 ug/mL | >1000/>1000/>1000 ug/mL | >1000/>1000/>1000 ug/mL | 22 nM | – | – | – | – | –
CCc1nc2ncnn2c(O)c1Cc1ccc(C(C)(C)COC)cc1 [Compound 36] | 49 mL/min/kg | 20 mL/min/kg | 5.9 | 60 nM | 62 ug/mL | > 1000 ug/mL | > 1000 ug/mL | 13 nM | – | – | – | – | –
COCc1nc2nc(O)c(Cc3ccc(C(C)(C)C)cc3)c(COC)n2n1 [Compound 38, 6-(4-(tert-butyl)benzyl)-2,7-bis(methoxymethyl)-[1,2,4]triazolo[1,5-a]pyrimidin-5-ol] | 15 mL/min/kg | 5 mL/min/kg | 5.9 | – | 132 ug/mL | 999 ug/mL | 989 ug/mL | 13 nM | 21 mL/min/kg | 0.010 | 9% | 5 mL/min/kg | metabolic stability (in words) [1]: improved; Vd (in words) (Rat PK (i.v./p.o.)): low; exposure (in words) (Rat PK (i.v./p.o.)): good; in vivo CL (in words) (Rat PK (i.v./p.o.)): relatively low; IC50 (Molt-4 cells): 200 nM; solubility (in words) [3]: improved
Cc1nc2nc(CO)nn2c(O)c1Cc1ccc(C(C)(C)C)cc1 [Compound 39] | – | – | – | – | – | – | – | – | – | – | – | – | increase in oral bioavailability (Rat PK (i.v./p.o.)): approximately 4 fold; % F (p.o.) (Rat PK (i.v./p.o.)): 43%; Oral AUC/D (Rat PK (i.v./p.o.)): 0.32 ug · hr/ml/(mg/kg); Solubility pH 4 [3]: 0.024 mg/ml; Solubility pH 7.4 [3]: 0.26 mg/ml; Solubility pH 9 [3]: 1 mg/ml; In-vitro Precipitation Time (Visual assessment), SGF ([5]; simulated gastric fluid): SGF: 60 min; In-vitro Precipitation Time (Visual assessment), SIF ([5]; simulated intestinal fluid): SIF: >240 min
COCc1nc2nc(C)c(Cc3ccc(C(C)(C)C)cc3)c(O)n2n1 [Compound 41] | – | – | – | – | – | – | – | – | 171 mL/min/kg | 0.010 | 15% | 8 mL/min/kg | –
Cc1nc2nc(OCCO)nn2c(O)c1Cc1ccc(C(C)(C)C)cc1 [Compound 42] | – | – | – | – | – | – | – | – | 373 mL/min/kg | 0.010 | 7% | 4 mL/min/kg | increase in oral bioavailability (Rat PK (i.v./p.o.)): 3 fold; % F (p.o.) (Rat PK (i.v./p.o.)): 43%; Oral AUC/D (Rat PK (i.v./p.o.)): 1.25 ug · hr/ml/(mg/kg); increase in solubility at pH 4 ([3]; compound 42 vs compound 40): ~7 fold; increase in solubility at pH 7.4 ([3]; compound 42 vs compound 40): ~30 fold; Solubility pH 4 [3]: 0.045 mg/ml; Solubility pH 7.4 [3]: 0.61 mg/ml; Solubility pH 9 [3]: 1 mg/ml
